The numbers were not newly measured in patent US4139504A, “Novel nonapeptides, intermediates therefor, and compositions and methods employing said nonapeptides” (priority 1977, dated 1979), which cites them from elsewhere.

The test system of data set [1] is rat. To be noted: injected directly into the brain of the rat.
In data set [2] the test system is brain opiate receptor sites.

For the substance “H--Tyr--Gly--Gly--Phe--Met--OH [methionine enkephalin]”, in data set [1], the analgesic activity result is “only weak analgesic agent of short duration”. In data set [2], the “binding to partially purified brain opiate receptor sites” value was “binds stereo-specifically”.
